Measurements as given in paper PMC12086673, “Selective inhibition of NikA mediated Ni(II) import in E. coli by the Indium(III)-EDTA complex” (Metallomics: Integrated Biometal Science, 2025).

Biological target: T1, NikA (Escherichia coli, UniProt P33590)
T1 construct: wild type NikA, purified from periplasm (56 304 Da)
Assay: isothermal titration calorimetry, one-site model
Format: binding

T1 sequence (P33590 23-524): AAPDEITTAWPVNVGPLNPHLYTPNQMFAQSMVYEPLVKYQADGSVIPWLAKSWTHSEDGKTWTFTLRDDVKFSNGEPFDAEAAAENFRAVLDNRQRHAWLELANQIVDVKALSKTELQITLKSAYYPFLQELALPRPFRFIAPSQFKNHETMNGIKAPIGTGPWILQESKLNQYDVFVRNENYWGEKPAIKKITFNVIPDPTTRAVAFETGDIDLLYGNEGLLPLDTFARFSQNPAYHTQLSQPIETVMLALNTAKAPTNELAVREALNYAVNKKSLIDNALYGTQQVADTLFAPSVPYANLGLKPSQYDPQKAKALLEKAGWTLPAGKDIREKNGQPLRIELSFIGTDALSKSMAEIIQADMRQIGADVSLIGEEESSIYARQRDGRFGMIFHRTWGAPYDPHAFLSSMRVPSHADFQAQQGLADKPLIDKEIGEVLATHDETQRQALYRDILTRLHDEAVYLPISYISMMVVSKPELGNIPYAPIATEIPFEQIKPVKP

Row | Structure (SMILES) | Kd [µM]
1 | O=C([O-])CN(CCN(CC(=O)[O-])CC(=O)O)CC(=O)[O-].[In+3] [In(III)-EDTA] | 17.3 ± 3
2 | O=C([O-])CN(CCN(CC(=O)[O-])CC(=O)O)CC(=O)[O-].[Fe+3] [Fe(III)-EDTA] | 7.4 ± 0.7
